What was measured:
[1] = test system: 293T cells; experiment: Cell transfection test of LNP formulation of eGFP-mRNA (optimization of preparation conditions); assay type: cell-based
Experimental: The cationic lipid compound YK-407 synthesized in Example 1 was dissolved in ethanol with DSPC (AVT (Shanghai) Pharmaceutical Technology Co., Ltd.), cholesterol (AVT (Shanghai) Pharmaceutical Technology Co., Ltd.) and DMG-PEG2000 according to a molar ratio of 49:10:39.5:1.5, respectively, to prepare an ethanol lipid solution. The ethanol lipid solution was quickly added to citrate buffer (pH=4-5) by ethanol injection method, and vortexed for 30s for later use. eGFP-mRNA was diluted in citrate buffer (pH=4-5) to give an aqueous mRNA solution. A certain volume of liposome solution and mRNA aqueous solution were used to prepare liposomes at weight ratios of total lipids to mRNA of 5:1, 10:1, 15:1, 20:1, 30:1 and 35:1, respectively. The mixtures were sonicated at 25° C. for 15 min (with an ultrasonic frequency of 40 kHz and an ultrasonic power of 800 W). The resulted liposomes were diluted to 10 times volume with PBS, and then ultrafiltered with a 300KDa ultrafiltration tube to remove ethanol. Then the volume was fixed to a certain volume with PBS to give an LNP formulation encapsulating eGFP-mRNA using cationic lipid YK-407/DSPC/cholesterol/DMG-PEG2000 (49:10:39.5:1.5 in molar percentage).
The LNP formulation encapsulating eGFP-mRNA was prepared according to the method in 1, wherein the molar ratios of cationic lipid YK-407 to neutral lipid DSPC were 1:1, 3:1, 3.5:1, 4:1, 4.5:1, 4.9:1, 10:1, 15:1 and 20:1.
The LNP formulation encapsulating eGFP-mRNA was prepared according to the method in 1, wherein the cationic lipid in the carrier was YK-407, and the molar ratios of the polymer-conjugated lipid DMG-PEG2000 to the carrier were 0.5%, 1.5%, 3.5%, 5%, 10% and 15%, respectively.
The LNP formulation encapsulating eGFP-mRNA was prepared according to the method in 1, wherein the molar ratios of cationic lipid YK-407, neutral lipid DSPC, structured lipid cholesterol and polymer-conjugated lipid DMG-PEG2000 were 75:5:15:5, 49:10:39.5:1.5, 45:10:43.5:1.5, 45:25:20:10, 40:10:48.5:1.5, 35:10:53.5:1.5 and 25:5:65:5, respectively.
(§1) Cell recovery and passage: 293T cells were recovered, cultured in a culture dish, and passaged to the required number of cells.
(§2) Seeding plate: The cells in the culture dish were digested and counted. Cells were spread in a 96-well plate at 10,000 cells per well and in a 12-well plate at 150,000 cells per well. Cells were cultured overnight until the cells adhered to the wall.
Cell transfection test: The LNP formulation containing 1.5 μg of eGFP-mRNA prepared in Example 2 (the cationic lipid in the carrier was YK-407) and the Lipofectamin 3000 formulation of eGFP-mRNA were added respectively to the cell culture medium of the 12-well plate, and further incubated for 24 hours. The transfection efficiency of different samples was then investigated according to the fluorescence intensity by observing with a fluorescence microscope.

[2] = test system: 293T cells; experiment: Cell survival rate assay (CCK-8); assay type: cell-based
Experimental: as §1, §2
An LNP formulation containing 1.5 μg of Fluc-mRNA (prepared according to example 4, the carrier components of the LNP formulation were cationic lipid, neutral lipid, structured lipid and polymer-conjugated lipid at a molar ratio of 49:10:39.5:1.5, wherein the cationic lipid was listed in Table 1) and the formulation of Lipofectamine 3000 were added to the cell culture medium of a 96-well plate, and further cultivated for 24 hours. 10 μL of CCK-8 solution was then added to each well, and the culture plate was incubated in an incubator for 1 hour. The absorbance at 450 nm was measured by a microplate reader.

[3] = Particle size and polydispersity index (PDI) of lipid nanoparticles by dynamic light scattering; assay type: physicochemical
Experimental: The particle size and polydispersity index (PDI) were determined by dynamic light scattering using Malvern laser particle size analyzer.
10 μL of the liposome solution was weighed, diluted to 1 mL with RNase-free deionized water, and added to the sample pool. Each sample was measured in triplicate. The measurement conditions were: […] scattering angle, and 25° C.

[4] = test system: 293T cells; experiment: Fluorescent detection of Fluc-mRNA (cell transfection efficiency of LNP formulations); assay type: cell-based
[5] = test system: 293T cells; experiment: as above; assay type: cell-based; remark: listed apart in the source
Experimental: as §2
The corresponding reagents were added according to the instructions of the Gaussia Luciferase Assay Kit, and the fluorescence expression intensity of each well was detected by an IVIS fluorescence detection system.

Compound: CCCCCCCCC(CCCCCCCC)C(=O)OCCCCCCN(CCO)CCN(CCO)CCCCCCOC(=O)C(CCCCCCCC)CCCCCCCC [YK-402]
- transfection efficiency at different molar ratios of polymer-conjugated lipid DMG-PEG2000 to carrier ([1]; 0.5% to 15%): same results
- transfection effect at different molar ratios of cationic lipid, neutral lipid, structured lipid and polymer-conjugated lipid ([1]; 75:5:15:5 to 25:5:65:5): same results
- Cell survival rate ([2]; LNP with 1.5 μg Fluc-mRNA, 24 hours, CCK-8): 72.70%
- cell survival rate higher than ALC-0315 ([2]; difference vs ALC-0315): 25.49%
- cell survival rate higher than HIMA ([2]; difference vs HIMA (HHMA)): 8.43%
- cell survival rate higher than Lipofectamine 3000 ([2]; difference vs Lipofectamine 3000): 51.04%
- cell survival rate higher than SM-102 ([2]; difference vs SM-102): 4.80%
- cell survival rate higher than YK-404 ([2]; difference vs YK-404): 30.58%
- cell survival rate higher than YK-405 ([2]; difference vs YK-405): 30.84%
- cell survival rate higher than YK-406 ([2]; difference vs YK-406): 47.74%
- cell survival rate higher than YK-408 ([2]; difference vs YK-408): 30.39%
- cell survival rate higher than YK-409 ([2]; difference vs YK-409): 26.59%
- cell survival rate higher than YK-410 ([2]; difference vs YK-410): 27.78%
- cell survival rate higher than YK-411 ([2]; difference vs YK-411): 56.37%
- cell survival rate higher than YK-412 ([2]; difference vs YK-412): 18.56%
- cell survival rate higher than YK-413 ([2]; difference vs YK-413): 25.50%
- cell survival rate higher than YK-414 ([2]; difference vs YK-414): 43.95%
- cell survival rate higher than YK-415 ([2]; difference vs YK-415): 11.54%
- cell survival rate higher than YK-416 ([2]; difference vs YK-416): 31.73%
- cell survival rate higher than YK-417 ([2]; difference vs YK-417): 51.36%
- cell survival rate higher than YK-418 ([2]; difference vs YK-418): 51.65%
- cell survival rate higher than YK-419 ([2]; difference vs YK-419): 33.78%
- cell survival rate higher than YK-420 ([2]; difference vs YK-420): 37.11%
- cell survival rate higher than YK-421 ([2]; difference vs YK-421): 36.99%
- cell survival rate higher than YK-424 ([2]; difference vs YK-424): 44.77%
- cell survival rate higher than compound 21 ([2]; difference vs compound 21): 4.86%
- cell survival rate higher than compound 23 ([2]; difference vs compound 23): 3.59%
- cytotoxicity reduced compared with YK-411 ([2]; rounded summary statement vs YK-411): 50%
- PDI ([3]; LNP formulation of the cationic lipid, 25° C.): 17.1%
- Particle size ([3]; LNP formulation of the cationic lipid/DSPC/cholesterol/DMG-PEG2000 49:10:39.5:1.5, 25° C.): 155 nm
- RLU value, times that of ALC-0315 ([4]; ratio vs ALC-0315): 2.30
- RLU value, times that of HHMA ([4]; ratio vs HHMA): 2.43
- RLU value, times that of Lipofectamine 3000 ([4]; ratio vs Lipofectamine 3000): 4.20
- RLU value, times that of YK-009 ([4]; ratio vs YK-009): 0.98
- RLU value, times that of YK-405 ([4]; ratio vs YK-405): 1.58
- RLU value, times that of YK-406 ([4]; ratio vs YK-406): 64.46
- RLU value, times that of YK-408 ([4]; ratio vs YK-408): 3.42
- RLU value, times that of YK-409 ([4]; ratio vs YK-409): 7.53
- RLU value, times that of YK-410 ([4]; ratio vs YK-410): 12.37
- cell transfection efficiency, times that of YK-412 ([4]; ratio vs YK-412): 1.50
- cell transfection efficiency, times that of YK-413 ([4]; ratio vs YK-413): 3.66
- cell transfection efficiency, times that of YK-414 ([4]; ratio vs YK-414): 11.36
- cell transfection efficiency, times that of YK-416 ([4]; ratio vs YK-416): 1.27
- cell transfection efficiency, times that of YK-419 ([4]; ratio vs YK-419): 1.59
- cell transfection efficiency, times that of YK-420 ([4]; ratio vs YK-420): 1.25
- cell transfection efficiency, times that of YK-421 ([4]; ratio vs YK-421): 10.81
- Relative light unit (RLU) ([5]; LNP with 0.3 μg Fluc-mRNA, 96-well plate, 24 hours): 5044102 RLU
- cell transfection efficiency, times that of YK-415 ([5]; ratio vs YK-415): 16.93
- cell transfection efficiency, times that of YK-417 ([5]; ratio vs YK-417): 43.01
- cell transfection efficiency, times that of YK-418 ([5]; ratio vs YK-418): 45.34
- cell transfection efficiency, times that of YK-424 ([5]; ratio vs YK-424): 1.75
- RLU value, times that of compound 21 ([5]; ratio vs compound 21): 3.34
- RLU value, times that of compound 23 ([5]; ratio vs compound 23): 3.60

Source: patent publication US12545637B2, “Extrahepatic targeted cationic lipid compound with high efficiency and low toxicity and its composition” (BEIJING YOUCARE KECHUANG PHARMACEUTICAL TECHNOLOGY CO., LTD., priority 2023, dated 2026)
